Patent US9328138B2 (priority 2011, dated 2016)
pKi: −log10 of the molar value. “And” between values parts separate entries of the source, which are not always exact repeats. Identical values can stand only once.

What was measured:
[1] = biological target: T1, HCV genotype 1b (BK) NS3 modified enzyme with a R155K mutation (Hepatitis C virus genotype 1b, UniProt P26663, R1181K); assay: HCV NS3 protease time-resolved fluorescence (TRF) assay, genotype 1b R155K; type: biochemical; conditions: Ki 1b R155K, genotype 1b (BK) NS3 R155K; single value
T1 construct: HCV genotype 1b (BK) NS3 modified enzyme
Summary of the method: (§1)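 Time-resolved fluorescence, ex 340/em 615 nm, 400 μs delay; IC50 by four-parameter fit. Enzyme preincubated with compound 10 min, then TRF substrate 25 nM final added and reaction run 6 h at RT. Buffer HEPES pH 7.5 with NaCl, glycerol, Triton X-100, DTT, PEG 8000.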

[2] = biological target: HCV NS3 protease genotype 3a (3A-1) (Hepatitis C virus genotype 3a, UniProt Q81258); assay: HCV NS3 protease time-resolved fluorescence (TRF) assay, genotype 3a; type: biochemical; conditions: Ki 3a
Summary of the method: as §1

| SMILES | pKi [1] | pKi [2] |
| --- | --- | --- |
| C=C[C@@H]1C[C@]1(NC(=O)[C@@H]1C[C@@H]2CN1C(=O)[C@H](C(C)(C)C)NC(=O)O[C@@H]1CCC[C@H]1CCCCCc1c(nc3ccccc3c1OCCN(C)C)O2)C(=O)NS(=O)(=O)C1(CCN2CCOCC2)CC1 [Example 103, (3aR,7S,10S,12R,24aR)-7-tert-butyl-19-[2-(dimethylamino)ethoxy]-N-{(1R,2S)-2-ethenyl-1-[({1-[2-(morpholin-4-yl)ethyl]cyclopropyl}sulfonyl)carbamoyl]cyclopropyl}-5,8-dioxo-1,2,3,3a,5,6,7,8,11,12,20,21, 22,23,24,24a-hexadeca hydro-10H-9,12-methanocyclo-penta[18,19][1,10,3,6] dioxadiazacyclononadecino [11,12-b]quinoline-10-carboxamide] | 9.11 and 9.89 | 8.07 and 8.96 |
| C=C[C@@H]1C[C@]1(NC(=O)[C@@H]1C[C@@H]2CN1C(=O)[C@H](C(C)(C)C)NC(=O)O[C@@H]1CCC[C@H]1CCCCCc1c(nc3ccccc3c1OCCN1CCOCC1)O2)C(=O)NS(=O)(=O)C1CC1 [Example 104, (3aR,7S,10S,12R,24aR)-7-tert-butyl-N-{(1R,2S)-1-[(cyclopropylsulfonyl)carbamoyl]-2-ethenylcyclopropyl}-19-[2-(morpholin-4-yl)ethoxy]-5,8-dioxo-1,2,3,3a,5,6,7,8,11,12,20, 21,22,23,24,24a-hexadecahydro-10H-9,12-methanocyclopenta[18,19] [1,10,3,6]dioxadiaza-cyclononadecino[11,12-b] quinoline-10-carboxamide] | 8.89 | 7.59 |
| C=C[C@@H]1C[C@]1(NC(=O)[C@@H]1C[C@@H]2CN1C(=O)[C@H](C(C)(C)C)NC(=O)O[C@@H]1CCC[C@H]1CCCCCc1c(nc3ccccc3c1OCCN1CCOCC1)O2)C(=O)NS(=O)(=O)C1(C)CC1 [Example 105, (3aR,7S,10S,12R,24aR)-7-tert-butyl-N-[(1R,2S)-2-ethenyl-1-{[(1-methyl-cyclopropyl)sulfonyl]carbamoyl}cyclopropyl]-19-[2-(morpholin-4-yl)ethoxy]-5,8-dioxo-1,2,3,3a, 5,6,7,8,11,12,20,21, 22,23,24,24a-hexadeca hydro-10H-9,12-methanocyclopenta [18,19][1,10,3,6]dioxadiazacyclo nonadecino[11,12-b]quinoline-10-carboxamide] | 9.37 | 7.85 |
| C=C[C@@H]1C[C@]1(NC(=O)[C@@H]1C[C@@H]2CN1C(=O)[C@H](C(C)(C)C)NC(=O)O[C@@H]1CCC[C@H]1CCCCCc1c(nc3ccccc3c1OCCN1CCOCC1)O2)C(=O)NS(=O)(=O)N(C)C [Example 106, (3aR,7S,10S,12R,24aR)-7-tert-butyl-N-{(1R,2S)-1-[(dimethylsulfamoyl)carbamoyl]-2-ethenylcyclopropyl}-19-[2-(morpholin-4-yl)ethoxy]-5,8-dioxo-1,2,3,3a,5,6,7,8,11,12,20,21,22,23,24,24a-hexadecahydro-10H-9,12-methanocyclopenta[18,19][1,10,3,6]dioxadiazacyclononadecino[11,12-b]quinoline-10-carboxamide] | 9.11 | 7.77 |
| C=C[C@@H]1C[C@]1(NC(=O)[C@@H]1C[C@@H]2CN1C(=O)[C@H](C(C)(C)C)NC(=O)O[C@@H]1CCC[C@H]1CCCCCc1c(nc3ccccc3c1OCCN1CCOCC1)O2)C(=O)NS(=O)(=O)N1CCC1 [Example 107, (3aR,7S,10S,12R,24aR)-N-{(1R,2S)-1-[(azetidin-1-ylsulfonyl)carbamoyl]-2-ethenylcyclopropyl}-7-tert-butyl-19-[2-(morpholin-4-yl)ethoxy]-5,8-dioxo-1,2,3,3a,5,6,7,8,11,12,20,21,22,23,24,24a-hexadecahydro-10H-9,12-methanycyclopenta [18,19][1,10,3,6]dioxadiazacyclo nonadecino[11,12-b]quinoline-10-carboxamide] | 9.13 | 7.64 |
| C=C[C@@H]1C[C@]1(NC(=O)[C@@H]1C[C@@H]2CN1C(=O)[C@H](C(C)(C)C)NC(=O)O[C@@H]1CCC[C@H]1CCCCCc1c(nc3ccccc3c1OCCN1CCOCC1)O2)C(=O)NS(=O)(=O)C1(C(C)(C)O)CC1 [Example 108, (3aR,7S,10S,12R,24aR)-7-tert-butyl-N-[(1R,2S)-2-ethenyl-1-({[1-(2-hydroxypropan-2-yl)cyclopropyl]sulfonyl}carbamoyl)cyclopropyl]-19-[2-(morpholin-4-yl)ethoxy]-5,8-dioxo-1,2,3,3a,5,6,7,8,11, 12,20,21,22,23,24,24a-hexadeca hydro-10H-9,12-methanocyclopenta [18,19][1,10,3,6]dioxadiaza-cyclononadecino [11,12-b]quinoline-10-carboxamide] | 9.03 | 7.64 |
| C=C[C@@H]1C[C@]1(NC(=O)[C@@H]1C[C@@H]2CN1C(=O)[C@H](C(C)(C)C)NC(=O)O[C@@H]1CCC[C@H]1CCCCCc1c(nc3ccccc3c1OCCN1CCOCC1)O2)C(=O)NS(=O)(=O)N1CCCC1 [Example 109, (3aR,7S,10S,12R,24aR)-7-tert-butyl-N-{(1R,2S)-2-ethenyl-1-[(pyrrolidin-1-ylsulfonyl)carbamoyl]cyclopropyl}-19-[2-(morpholin-4-yl)ethoxy]-5,8-dioxo-1,2,3,3a,5,6,7,8,11,12,20,21,22,23,24,24a-hexadecahydro-10H-9,12-methano cyclopenta[18,19][1,10,3,6] dioxadiazacyclononadecino [11,12-b]quinoline-10-carboxamide] | 8.39 | 6.91 |
| C=C[C@@H]1C[C@]1(NC(=O)[C@@H]1C[C@@H]2CN1C(=O)[C@H](C(C)(C)C)NC(=O)O[C@@H]1CCC[C@H]1CCCCCc1c(nc3ccccc3c1OCCN1CCOCC1)O2)C(=O)NS(=O)(=O)N1CCCCC1 [Example 110, (3aR,7S,10S,12R,24aR)-7-tert-butyl-N-{(1R,2S)-2-ethenyl-1-[(piperidin-1-ylsulfonyl)carbamoyl]cyclopropyl}-19-[2-(morpholin-4-yl)ethoxy]-5,8-dioxo-1,2,3,3a,5,6,7,8, 11,12,20,21,22,23,24,24a-hexadecahydro-10H-9,12-methanocyclopenta[18,19] [1,10,3,6]dioxadiaza-cyclononadecino[11,12-b] quinoline-10-carboxamide] | 7.85 | 6.31 |
| C=C[C@@H]1C[C@]1(NC(=O)[C@@H]1C[C@@H]2CN1C(=O)[C@H](C(C)(C)C)NC(=O)O[C@@H]1CCC[C@H]1CCCCCc1c(nc3ccccc3c1OCCN1CCOCC1)O2)C(=O)NS(=O)(=O)N(C)CCOC [Example 111, (3aR,7S,10S,12R,24aR)-7-tert-butyl-N-[(1R,2S)-2-ethenyl-1-{[(2-methoxyethyl)(methyl)sulfamoyl]carbamoyl}cyclopropyl]-19-[2-(morpholin-4-yl)ethoxy]-5,8-dioxo-1,2,3,3a,5,6,7,8,11,12,20,21,22,23,24,24a-hexadecahydro-10H-9,12-methano-cyclopenta[18,19][1,10,3,6] dioxadiazacyclononadecino [11,12-b] quinoline-10-carboxamide] | 7.96 | 6.57 |
| C=C[C@@H]1C[C@]1(NC(=O)[C@@H]1C[C@@H]2CN1C(=O)[C@H](C(C)(C)C)NC(=O)O[C@@H]1CCC[C@H]1CCCCCc1c(nc3ccccc3c1OCCN1CCOCC1)O2)C(=O)NS(=O)(=O)N1CCOCC1 [Example 112, (3aR,7S,10S,12R,24aR)-7-tert-butyl-N-{(1R,2S)-2-ethenyl-1-[(morpholin-4-ylsulfonyl)carbamoyl]cylcopropyl}-19-[2-(morpholin-4-yl)ethoxy]-5,8-dioxo-1,2,3,3a,5,6,7,8,11,12,20,21,22,23,24,24a-hexadecahydro-10H-9,12-methanocyclopenta[18,19] [1,10,3,6] dioxadiazacyclononadecino [11,12-b]quinoline-10-carboxamide] | 7.62 | 6.21 |
| C=C[C@@H]1C[C@]1(NC(=O)[C@@H]1C[C@@H]2CN1C(=O)[C@H](C(C)(C)C)NC(=O)O[C@@H]1C[C@H]1CCCCCc1c(nc3ccccc3c1OCCN1CCOCC1)O2)C(=O)NS(=O)(=O)C1(C)CC1 [Example 113, (1aR,5S,8S,10R,22aR)-5-tert-butyl-N-[(1R,2S)-2-ethenyl-1-{[(1-methylcyclopropyl)sulfonyl]carbamoyl}cyclopropyl]-17-[2-(morpholin-4-yl)ethoxy]-3,6-dioxo-1,1a,3,4,5,6,9,10,18,19,20,21,22,22a-tetradecahydro-8H-7,10-methanocyclopropa[18,19][1,10,3,6]dioxadiazacyclononadecino[11,12-b]quinoline-8-carboxamide] | 10.05 | 8.80 |
| C=C[C@@H]1C[C@]1(NC(=O)[C@@H]1C[C@@H]2CN1C(=O)[C@H](C(C)(C)C)NC(=O)O[C@@H]1C[C@H]1CCCCCc1c(nc3ccccc3c1OCCCN(C)C)O2)C(=O)NS(=O)(=O)C1(C)CC1 [Example 114, (1aR,5S,8S,10R,22aR)-5-tert-butyl-17-[3-(dimethylamino)propoxy]-N-[(1R,2S)-2-ethenyl-1-{[(1-methylcyclopropyl)sulfonyl]carbamoyl}cyclopropyl]-3,6-dioxo-1,1a,3,4,5,6,9,10,18,19,20,21,22,22a-tetradecahydro-8H-7,10-methanocyclo propa[18,19][1,10,3,6]dioxadiazacyclo-nonadecino[11,12-b] quinoline-8-carboxamide] | 10.29 | 9.60 |
| C=C[C@@H]1C[C@]1(NC(=O)[C@@H]1C[C@@H]2CN1C(=O)[C@H](C(C)(C)C)NC(=O)O[C@@H]1C[C@H]1CCCCCc1c(nc3ccccc3c1OCCCN1CCCCC1)O2)C(=O)NS(=O)(=O)C1(C)CC1 [Example 115, (1aR,5S,8S,10R,22aR)-5-tert-butyl-N-[(1R,2S)-2-ethenyl-1-{[(1-methylcyclopropyl)sulfonyl]carbamoyl}cyclopropyl]-3,6-dioxo-17-[3-(piperidin-1-yl)propoxy]-1,1a,3,4,5,6,9,10,18,19,20,21,22,22a-tetradeca hydro-8H-7,10-methano cyclopropa[18,19][1,10,3,6] dioxadiazacyclononadecino [11,12-b]quinoline-8-carboxamide] | 10.24 | 9.60 |
